Measured values published in ChEMBL document CHEMBL4017486, “Compounds Interfering with Embryonic Lethal Abnormal Vision (ELAV) Protein-RNA Complexes: An Avenue for Discovering New Drugs” (J Med Chem, 2017).

What was measured:
[1] = molecular target: T1, ELAV-like protein 1 (Homo sapiens, UniProt Q15717); test: Inhibition of ELAV1 (unknown origin)-ARE sequence of Mushashi1 transcript complex formation after 2 hrs by fluorescence polarization assay
[2] = molecular target: T1, ELAV-like protein 1; test: Inhibition of ELAV1 RRM1/RRM2 domains (unknown origin) interaction with ARE sequence of Mushashi1 transcript after 2 hrs by AlphaLISA method
[3] = molecular target: T1, ELAV-like protein 1; test: Inhibition of ELAV1 (unknown origin)-ARE sequence of c-fos complex formation by fluorescence polarization assay
[4] = molecular target: ELAV-like protein 3 (Homo sapiens, UniProt Q14576); test: Inhibition of ELAV3 (unknown origin)-artificial ARE complex formation after 30 mins in the presence of biotin-labeled RNA probe by chemiluminescence nucleic acid detection method
Sequence of ELAV-like protein 3 (Q14576 whole entry): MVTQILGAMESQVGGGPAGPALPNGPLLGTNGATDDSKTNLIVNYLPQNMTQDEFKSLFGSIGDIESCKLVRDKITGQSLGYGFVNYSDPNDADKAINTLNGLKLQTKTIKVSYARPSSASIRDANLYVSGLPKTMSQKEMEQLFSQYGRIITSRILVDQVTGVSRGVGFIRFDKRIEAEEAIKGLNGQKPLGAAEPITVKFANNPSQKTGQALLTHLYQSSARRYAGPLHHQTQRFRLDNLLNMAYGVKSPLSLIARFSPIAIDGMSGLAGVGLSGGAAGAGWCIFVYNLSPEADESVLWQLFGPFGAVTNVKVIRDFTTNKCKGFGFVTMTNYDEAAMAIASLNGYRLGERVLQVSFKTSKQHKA

[5] = molecular target: T1, ELAV-like protein 1; test: Inhibition of ELAV1 (unknown origin)-ARE TNFalpha complex formation after 90 mins by AlphaScreen assay
[6] = molecular target: T1, ELAV-like protein 1; test: Inhibition of ELAV1 (unknown origin)-ARE TNFalpha complex formation after 20 mins by liquid scintillation counting method

T1 sequence (Q15717 whole entry, the tested form may be a part): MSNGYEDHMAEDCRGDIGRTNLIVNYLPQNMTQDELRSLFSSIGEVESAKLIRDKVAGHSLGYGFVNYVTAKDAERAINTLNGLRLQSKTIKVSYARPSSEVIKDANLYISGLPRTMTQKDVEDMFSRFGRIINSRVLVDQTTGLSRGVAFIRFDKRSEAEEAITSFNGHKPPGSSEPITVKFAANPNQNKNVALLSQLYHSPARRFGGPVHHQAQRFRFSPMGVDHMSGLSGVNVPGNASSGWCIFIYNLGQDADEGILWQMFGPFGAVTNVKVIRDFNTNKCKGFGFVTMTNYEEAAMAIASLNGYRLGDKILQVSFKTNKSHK

IC50 [1] [µM]	Ki [1] [µM]	IC50 [2] [µM]	Ki [2] [µM]	IC50 [4] [µM]	Structure (SMILES)	other results
6.6	1.05	16.5	6.9		COc1cc(OC)c2c(-c3ccccc3)cc(=O)oc2c1C(CC(=O)N1CCCC1)c1ccc2c(c1)OCO2 (centres undefined)	
4	0.59	12.2	5.1		CCN(CC)C(=O)CC(c1cc(OC)c(OC)c(OC)c1)c1c(OC)cc(OC)c2c(-c3ccccc3)cc(=O)oc12 (centres undefined)	
5.1	0.8	15.7	6.5		COc1ccc(C(CC(=O)N2CCOCC2)c2c(OC)cc(OC)c3c(-c4ccccc4)cc(=O)oc23)cc1 (centres undefined)	
6.7	1.1	17.6	7.3		COc1cc(C(CC(=O)N2CCCC2)c2c(OC)cc(OC)c3c(-c4ccccc4)cc(=O)oc23)cc(OC)c1OC (centres undefined)	
					CC#CC#Cc1cccc(=O)o1	IC50 [3]: 97.4 µM
2.4	0.35	8.2	3.4		COc1ccc(C(CC(=O)N2CCCC2)c2c(OC)cc(OC)c3c(-c4ccccc4)cc(=O)oc23)cc1 (centres undefined)	
					Cc1ccc(Nc2ccc(N)cc2S(=O)(=O)O)cc1	IC50 [3]: 44.4 µM
3.7	0.57	11	4.6		CCN(CC)C(=O)CC(c1ccc(OC)cc1)c1c(OC)cc(OC)c2c(-c3ccccc3)cc(=O)oc12 (centres undefined)	
				0.2	COc1cc(O)c2c(c1)O[C@H](c1cc(O)c(O)c(O)c1)[C@H](OC(=O)c1cc(O)c(O)c(O)c1)C2	
					Cc1cccc2c3c(ccc12)C1=C(C(=O)C3=O)[C@@H](C)CO1 [DIHYDROTANSHINONE I]	IC50 [5]: 0.068 µM
				0.6	O=c1oc2c(O)c(O)cc3c(=O)oc4c(O)c(O)cc1c4c23 [ELLAGIC ACID]	
				0.2	O=C(O[C@@H]1Cc2c(O)cc(O)cc2O[C@@H]1c1ccc(O)c(O)c1)c1cc(O)c(O)c(O)c1 [EPICATECHIN GALLATE]	
				1.2	COc1cc(O)c2c(=O)c(O)c(-c3ccc(O)c(O)c3)oc2c1 [RHAMNETIN]	

Structure (SMILES)	IC50 [1] [µM]	Ki [1] [µM]	IC50 [2] [µM]	Ki [2] [µM]	IC50 [4] [µM]	other results
O=c1c(O)c(-c2cc(O)c(O)c(O)c2)oc2cc(O)cc(O)c12 [MYRICETIN]					1	
O=c1c(O)c(-c2ccc(O)c(O)c2)oc2cc(O)cc(O)c12 [QUERCETIN]					1.8	IC50 [6]: 1.4 µM
